One experiment concerns the target DNMT1 (Homo sapiens, UniProt P26358). Put plainly: DNMT1 biochemical activity, breaklight assay and/or SPA assay. The conditions noted are these: binned activity in either the breaklight or the SPA assay; for IC50: read-out: DNMT1 BioChemical (pIC50 category) (converted).
The subject of experiment [1] is erythroid progenitor cells (EPCs). Put plainly: Fetal hemoglobin (HbF) ELISA in day 7 erythroid progenitor cells.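 Note: for fetal hemoglobin induction normalized to vehicle-treated cells.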 The experiment is classed as cell-based, human. The note with it: Homo sapiens, Erythroid progenitor cell, HbF ELISA, day 7 EPCs, 5 days; read-out: EPC ELISA (pEC50 category) (converted). The essentials:
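Day 7 EPCs from human bone marrow CD34+ cells were plated at 1,000 cells/well in media with 3 U/mL rhEPO. They were exposed to a 22-point dilution ([…]) for 5 days at 37 °C. Lysate HbF was measured by sandwich ELISA (OD450) and normalized to DMSO control wells.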
(In general: ELISA stands for enzyme-linked immunosorbent assay.)

The values below come from patent US10975056B2 (GlaxoSmithKline Intellectual Property Development Limited, priority 2016, dated 2021).

Where a name gives a salt, the structure may show the parent alone.

DNMT1, sequence (P26358 whole entry, looked up): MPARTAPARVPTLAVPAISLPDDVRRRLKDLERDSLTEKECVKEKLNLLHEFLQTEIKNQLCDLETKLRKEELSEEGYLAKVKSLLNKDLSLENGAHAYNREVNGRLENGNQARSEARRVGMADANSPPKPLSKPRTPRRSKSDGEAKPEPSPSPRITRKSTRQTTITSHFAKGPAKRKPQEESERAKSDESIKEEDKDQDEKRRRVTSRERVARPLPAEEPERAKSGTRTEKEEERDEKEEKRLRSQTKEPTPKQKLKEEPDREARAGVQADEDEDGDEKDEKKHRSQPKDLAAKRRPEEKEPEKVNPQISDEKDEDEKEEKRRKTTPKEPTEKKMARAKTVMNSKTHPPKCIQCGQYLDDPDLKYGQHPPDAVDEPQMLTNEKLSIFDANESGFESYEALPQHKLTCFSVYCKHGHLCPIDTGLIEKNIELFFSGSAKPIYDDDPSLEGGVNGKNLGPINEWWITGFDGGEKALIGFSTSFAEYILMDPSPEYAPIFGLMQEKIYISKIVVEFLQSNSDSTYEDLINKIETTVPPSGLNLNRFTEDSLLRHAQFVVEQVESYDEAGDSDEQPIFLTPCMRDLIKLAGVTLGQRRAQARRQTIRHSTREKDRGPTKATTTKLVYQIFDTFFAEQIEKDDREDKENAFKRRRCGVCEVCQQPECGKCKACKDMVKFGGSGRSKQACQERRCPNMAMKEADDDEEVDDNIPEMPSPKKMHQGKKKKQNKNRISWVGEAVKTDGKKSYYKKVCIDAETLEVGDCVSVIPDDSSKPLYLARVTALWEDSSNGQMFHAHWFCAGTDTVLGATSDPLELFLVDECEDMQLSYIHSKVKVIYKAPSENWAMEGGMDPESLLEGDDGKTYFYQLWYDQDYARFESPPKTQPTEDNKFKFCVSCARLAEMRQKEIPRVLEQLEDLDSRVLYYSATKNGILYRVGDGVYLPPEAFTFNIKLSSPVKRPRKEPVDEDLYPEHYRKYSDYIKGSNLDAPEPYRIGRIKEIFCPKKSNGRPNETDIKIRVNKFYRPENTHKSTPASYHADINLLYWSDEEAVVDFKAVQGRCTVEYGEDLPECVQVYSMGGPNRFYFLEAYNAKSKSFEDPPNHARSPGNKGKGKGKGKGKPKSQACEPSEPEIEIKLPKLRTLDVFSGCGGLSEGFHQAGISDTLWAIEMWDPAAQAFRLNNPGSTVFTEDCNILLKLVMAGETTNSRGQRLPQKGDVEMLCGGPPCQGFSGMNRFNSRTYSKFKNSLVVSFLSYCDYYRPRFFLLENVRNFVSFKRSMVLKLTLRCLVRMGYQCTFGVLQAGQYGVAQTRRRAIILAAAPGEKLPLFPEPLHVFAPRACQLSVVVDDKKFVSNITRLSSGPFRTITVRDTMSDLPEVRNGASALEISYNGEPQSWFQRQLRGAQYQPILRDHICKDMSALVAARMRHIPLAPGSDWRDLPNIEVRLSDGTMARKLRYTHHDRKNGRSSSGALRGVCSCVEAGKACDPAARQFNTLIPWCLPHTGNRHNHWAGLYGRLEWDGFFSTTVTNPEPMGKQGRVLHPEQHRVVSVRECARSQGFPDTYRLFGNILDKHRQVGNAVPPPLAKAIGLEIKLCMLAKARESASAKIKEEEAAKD

With `CCc1c(C#N)c(SC(C(N)=O)c2ccccc2)nc(N2CCC[C@@H](NC)C2)c1C#N` (stereo partly drawn) [Example 636, 2-((3,5-dicyano-4-ethyl-6-((R)-3-(methylamino)piperidin-1-yl)pyridin-2-yl)thio)-2-phenylacetamide], the “DNMT1 BioChemical (pIC50 category)” value on DNMT1 is on record as “D (Category D: ≥6.5)”. Moreover, in experiment [1], the EC50 is below 0.316 µM.

For `CCc1c(C#N)c(SC(C(N)=O)c2ccccc2)nc(N2CCC(CN3CCCC3)CC2)c1C#N` (stereo not shown) [Example 445, 2-((3,5-dicyano-4-ethyl-6-(4-(pyrrolidin-1-ylmethyl)piperidin-1-yl)pyridin-2-yl)thio)-2-phenylacetamide], the “DNMT1 BioChemical (pIC50 category)” value at DNMT1 is “D (Category D: ≥6.5)”. In addition, the EC50 in experiment [1] is below 0.316 µM.

Regarding `CCc1c(C#N)c(SC(C(N)=O)c2ccccc2)nc(N2CCC(NC3CC3)C(F)C2)c1C#N` (stereo not shown) [Example 527, 2-((3,5-dicyano-6-(4-(cyclopropylamino)-3-fluoropiperidin-1-yl)-4-ethylpyridin-2-yl)thio)-2-phenylacetamide], the “DNMT1 BioChemical (pIC50 category)” value on DNMT1 is “D (Category D: ≥6.5)”. The EC50 in experiment [1] is below 0.316 µM.

Consider `CCc1c(C#N)c(SCc2ccc(CNC(=O)CNC)cc2)nc(N2CCCN(C)CC2)c1C#N` [Example 358, N-(4-(((3,5-Dicyano-4-ethyl-6-(4-methyl-1,4-diazepan-1-yl)pyridin-2-yl)thio)methyl)benzyl)-2-(methylamino)acetamide], for which, at DNMT1, the “DNMT1 BioChemical (pIC50 category)” value is “D (Category D: ≥6.5)”. In experiment [1], the EC50 is above 31.6 µM.

As to `CCc1c(C#N)c(SC(C(N)=O)c2cccc(OCCN(C)C)c2)nc(N(C)C)c1C#N` (stereo not shown) [Example 407, 2-(3,5-dicyano-6-(dimethylamino)-4-ethylpyridin-2-ylthio)-2-(3-(2-(dimethylamino)ethoxy)phenyl)acetamide], the “DNMT1 BioChemical (pIC50 category)” value at DNMT1 is reported as “D (Category D: ≥6.5)”. Also, the EC50 in experiment [1] was 1 to 31.6 µM.

For `CCc1c(C#N)c(SC(C(N)=O)c2ccccc2)nc(N2CCC(NCCN)CC2)c1C#N` (stereo not shown) [Example 645, 2-((6-(4-((2-aminoethyl)amino)piperidin-1-yl)-3,5-dicyano-4-ethylpyridin-2-yl)thio)-2-phenylacetamide dihydrochloride], the “DNMT1 BioChemical (pIC50 category)” value on DNMT1 is recorded as “D (Category D: ≥6.5)”. Besides, in experiment [1], the EC50 was 0.316 to 1 µM.

As for `CCc1c(C#N)c(SCc2ccc(CC(=O)NCCO)cc2)nc(N(C)C)c1C#N` [Example 291, 2-(4-(((3,5-Dicyano-6-(dimethylamino)-4-ethylpyridin-2-yl)thio)methyl)phenyl)-N-(2-hydroxyethyl)acetamide], the IC50 at DNMT1 was 0.316 to 1 µM. The EC50 in experiment [1] was 1 to 31.6 µM.

With `CCc1c(C#N)c(SC(C(N)=O)c2ccccc2)nc(N2CCC(OCCO)CC2)c1C#N` (stereo not shown) [Example 224, 2-((3,5-Dicyano-4-ethyl-6-(4-(2-hydroxyethoxy)piperidin-1-yl)pyridin-2-yl)thio)-2-phenylacetamide], on DNMT1, the IC50 was 0.316 to 1 µM. Besides, in experiment [1], the EC50 was 0.316 to 1 µM.

As to `CCc1c(C#N)c(SC(C(N)=O)c2ccccc2)nc(N(C)CC(=O)NCCN)c1C#N` (stereo not shown) [Example 630, 2-((6-((2-amino-2-oxo-1-phenylethyl)thio)-3,5-dicyano-4-ethylpyridin-2-yl)(methyl)amino)-N-(2-aminoethyl)acetamide hydrochloride], the “DNMT1 BioChemical (pIC50 category)” value at DNMT1 is “D (Category D: ≥6.5)”. Besides, the EC50 in experiment [1] was below 0.316 µM.

Turning to `CCc1c(C#N)c(SC(C(N)=O)c2ccccc2)nc(N2CCC(N3CC(OC)C3)CC2)c1C#N` (stereo not shown) [Example 697, 2-((3,5-dicyano-4-ethyl-6-(4-(3-methoxyazetidin-1-yl)piperidin-1-yl)pyridin-2-yl)thio)-2-phenylacetamide], the “DNMT1 BioChemical (pIC50 category)” value on DNMT1 is “D (Category D: ≥6.5)”. The EC50 in experiment [1] was below 0.316 µM.

As for `CCc1c(C#N)c(SCc2ccccc2)nc(N2CCC(NC(=O)C(C)(C)N)CC2)c1C#N` [Example 95, 2-Amino-N-(1-(6-(benzylthio)-3,5-dicyano-4-ethylpyridin-2-yl)piperidin-4-yl)-2-methylpropanamide, Formic Acid Salt], the IC50 on DNMT1 was 0.316 to 1 µM. In addition, the EC50 in experiment [1] is 1 to 31.6 µM.
